Test results: PubChem BioAssay AID324 (DTP/NCI, 2004)
Where “and” joins values, the source holds several entries; their conditions need not be identical. Equal entries are not always repeated. Toxic doses and inconclusive results are not listed.

Tested on: CD2F1 mice, AMSA-resistant P388 leukemia ip, median survival T/C
Assay: NCI In Vivo Anticancer Drug Screen. Data for tumor model P388 Leukemia resistant to AMSA; NSC 249992 (intraperitoneal) in CD2F1 (CDF1) mice
Settings: endpoint: median survival time, higher = longer survival
Description: The antitumor activity of compounds was measured in mice bearing transplantable tumors. Survival or tumor size were measured and the results are expressed as the measurement made in the treated group (T) divided by the measurement made in the vehicle treated control group (C). The tumor model used in this assay is P388 Leukemia resistant to AMSA; NSC 249992 (intraperitoneal) in CD2F1 (CDF1) mice

[1] = dose: 6.48 mg/kg/injection, schedule: Q04DX003 (ip), vehicle: water
[2] = dose: 10.8 mg/kg/injection, schedule: Q04DX003 (ip), vehicle: water
[3] = dose: 18.0 mg/kg/injection, schedule: Q04DX003 (ip), vehicle: water
[4] = dose: 30.0 mg/kg/injection, schedule: Q04DX003 (ip), vehicle: water

COc1cccc2c1C(=O)c1c(O)c3c(c(O)c1C2=O)C[C@@](O)(C(=O)CO)C[C@@H]3OC1CC([N+](C)(C)C)C(O)C(C)O1 (some centres undefined)
T/C (dose: 3.89 mg/kg/injection, schedule: Q04DX003 (ip), vehicle: water): 103 % of control | T/C [1]: 111 % of control | T/C [2]: 107 % of control | T/C [3]: 108 % of control | T/C [4]: 100 % of control

CCCCC(=O)N(c1ccc(Nc2c3ccccc3nc3cc([N+](=O)[O-])ccc23)cc1)S(C)(=O)=O
T/C [2]: 100 % of control | T/C [3]: 96 % of control | T/C [4]: 95 % of control | T/C (dose: 50.0 mg/kg/injection, schedule: Q04DX003 (ip), vehicle: water): 99 % of control | T/C (dose: 83.3 mg/kg/injection, schedule: Q04DX003 (ip), vehicle: water): 91 % of control

CO[C@H]1Nc2c(ccc(C)c2O)C(=O)N2C=C(/C=C/C(N)=O)C[C@@H]12
T/C (dose: 0.08 mg/kg/injection, schedule: Q04DX003 (ip), vehicle: saline + alcohol): 104 % of control | T/C (dose: 0.13 mg/kg/injection, schedule: Q04DX003 (ip), vehicle: saline + alcohol): 123 % of control

O=P1(N(CCCl)CCCl)NCCCO1 (centres undefined)
T/C (dose: 16.2 mg/kg/injection, schedule: Q04DX003 (ip), vehicle: saline): 196 % of control | T/C (dose: 25.9 mg/kg/injection, schedule: Q04DX002 (ip), vehicle: saline): 220 % of control | T/C (dose: 27.0 mg/kg/injection, schedule: Q04DX003 (ip), vehicle: saline): 240 % of control | T/C (dose: 32.4 mg/kg/injection, schedule: Q04DX002 (ip), vehicle: saline): 243 % of control | T/C (dose: 43.2 mg/kg/injection, schedule: Q04DX002 (ip), vehicle: saline): 333 % of control | T/C (dose: 45.0 mg/kg/injection, schedule: Q04DX003 (ip), vehicle: saline): 348 % of control | T/C (dose: 54.0 mg/kg/injection, schedule: Q04DX002 (ip), vehicle: saline): 305 % of control | T/C (dose: 72.0 mg/kg/injection, schedule: Q04DX002 (ip), vehicle: saline): 407 % of control | T/C (dose: 75.0 mg/kg/injection, schedule: Q04DX003 (ip), vehicle: saline): 348 % of control | T/C (dose: 90.0 mg/kg/injection, schedule: Q04DX002 (ip), vehicle: saline): 416 % of control | T/C (dose: 120.0 mg/kg/injection, schedule: Q04DX002 (ip), vehicle: saline): 416 % of control | T/C (dose: 125.0 mg/kg/injection, schedule: Q04DX003 (ip), vehicle: saline): 348 % of control | T/C (dose: 150.0 mg/kg/injection, schedule: Q04DX002 (ip), vehicle: saline): 416 % of control | T/C (dose: 200.0 mg/kg/injection, schedule: Q04DX002 (ip), vehicle: saline): 164 % of control

C(=N/NC1=NCCN1)/c1c2ccccc2c(/C=N\NC2=NCCN2)c2ccccc12
T/C (dose: 5.18 mg/kg/injection, schedule: Q04DX002 (ip), vehicle: saline): 121 % of control | T/C (dose: 14.4 mg/kg/injection, schedule: Q04DX002 (ip), vehicle: saline): 123 % of control | T/C (dose: 40.0 mg/kg/injection, schedule: Q04DX002 (ip), vehicle: saline): 123 % of control

COc1c(O)c2c(c3cc(C(=O)N4CCc5c4c(O)c(OC)c4[nH]c(C(=O)N6CC7CC78C6=CC(=O)c6[nH]cc(C)c68)cc54)[nH]c13)CCN2C(N)=O (centres undefined)
T/C (dose: 0.04 mg/kg/injection, schedule: Q01DX001 (ip), vehicle: DMSO): 118 % of control | T/C (dose: 0.06 mg/kg/injection, schedule: Q01DX001 (ip), vehicle: DMSO): 123 % of control | T/C (dose: 0.18 mg/kg/injection, schedule: Q01DX001 (ip), vehicle: DMSO): 109 % of control

O=NN(CCCl)C(=O)NCCCl
T/C (dose: 3.89 mg/kg/injection, schedule: Q04DX003 (ip), vehicle: saline + alcohol): 164 % of control | T/C (dose: 6.48 mg/kg/injection, schedule: Q04DX003 (ip), vehicle: saline + alcohol): 222 % of control | T/C (dose: 10.8 mg/kg/injection, schedule: Q04DX003 (ip), vehicle: saline + alcohol): 267 % of control | T/C (dose: 18.0 mg/kg/injection, schedule: Q04DX003 (ip), vehicle: saline + alcohol): 387 % of control | T/C (dose: 30.0 mg/kg/injection, schedule: Q04DX003 (ip), vehicle: saline + alcohol): 115 % of control

Cc1c2ccncc2c(C)c2c1[nH]c1ccccc12
T/C (dose: 7.78 mg/kg/injection, schedule: Q04DX003 (ip), vehicle: saline with Tween-80): 100 % of control | T/C (dose: 13.0 mg/kg/injection, schedule: Q04DX003 (ip), vehicle: saline with Tween-80): 87 % of control | T/C (dose: 13.0 mg/kg/injection, schedule: Q04DX003 (ip), vehicle: water): 96 % of control | T/C (dose: 21.6 mg/kg/injection, schedule: Q04DX003 (ip), vehicle: saline with Tween-80): 100 % of control | T/C (dose: 21.6 mg/kg/injection, schedule: Q04DX003 (ip), vehicle: water): 100 % of control | T/C (dose: 25.9 mg/kg/injection, schedule: Q04DX002 (ip), vehicle: saline with Tween-80): 100 % of control | T/C (dose: 36.0 mg/kg/injection, schedule: Q04DX003 (ip), vehicle: saline with Tween-80): 101 % of control | T/C (dose: 36.0 mg/kg/injection, schedule: Q04DX003 (ip), vehicle: water): 101 % of control | T/C (dose: 43.2 mg/kg/injection, schedule: Q04DX002 (ip), vehicle: saline with Tween-80): 98 % of control | T/C (dose: 60.0 mg/kg/injection, schedule: Q04DX003 (ip), vehicle: saline with Tween-80): 109 % of control | T/C (dose: 60.0 mg/kg/injection, schedule: Q04DX003 (ip), vehicle: water): 89 % of control | T/C (dose: 72.0 mg/kg/injection, schedule: Q04DX002 (ip), vehicle: saline with Tween-80): 95 % of control | T/C (dose: 120.0 mg/kg/injection, schedule: Q04DX002 (ip), vehicle: saline with Tween-80): 95 % of control | T/C (dose: 200.0 mg/kg/injection, schedule: Q04DX002 (ip), vehicle: saline with Tween-80): 95 % of control

CCCCCCCC(=O)OCC(=O)[C@]1(O)Cc2c(O)c3c(c(O)c2[C@@H](OC2CC(N)C(O)C(C)O2)C1)C(=O)c1c(OC)cccc1C3=O (some centres undefined)
T/C (dose: 13.3 mg/kg/injection, schedule: Q04DX003 (ip), vehicle: water): 102 % of control

CCC1(O)CC(OC2CC(N(C)C)C(OC3CC4OC5CC(=O)C(C)OC5OC4C(C)O3)C(C)O2)c2c(cc3c(c2O)C(=O)c2c(O)ccc(O)c2C3=O)C1C(=O)OC (centres undefined)
T/C (dose: 0.64 mg/kg/injection, schedule: Q04DX003 (ip), vehicle: water): 108 % of control | T/C (dose: 0.86 mg/kg/injection, schedule: Q04DX003 (ip), vehicle: water): 112 % of control | T/C (dose: 1.08 mg/kg/injection, schedule: Q04DX003 (ip), vehicle: water): 107 % of control | T/C (dose: 1.44 mg/kg/injection, schedule: Q04DX003 (ip), vehicle: water): 115 % of control | T/C (dose: 1.8 mg/kg/injection, schedule: Q04DX003 (ip), vehicle: water): 117 % of control | T/C (dose: 2.4 mg/kg/injection, schedule: Q04DX003 (ip), vehicle: water): 124 % of control | T/C (dose: 5.0 mg/kg/injection, schedule: Q04DX003 (ip), vehicle: water): 113 % of control

O=C1c2c(O)ccc(O)c2C(=O)c2c(NCCNCCO)ccc(NCCNCCO)c21
T/C (dose: 1.3 mg/kg/injection, schedule: Q04DX002 (ip), vehicle: water): 110 % of control | T/C (dose: 3.6 mg/kg/injection, schedule: Q04DX003 (ip), vehicle: saline): 157 % of control | T/C (dose: 6.0 mg/kg/injection, schedule: Q04DX002 (ip), vehicle: water): 96 % of control | T/C (dose: 6.0 mg/kg/injection, schedule: Q04DX003 (ip), vehicle: saline): 96 % of control and 123 % of control | T/C (dose: 10.0 mg/kg/injection, schedule: Q04DX002 (ip), vehicle: water): 89 % of control

COc1cccc2c1C(=O)c1c(O)c3c(c(O)c1C2=O)C[C@@](O)(C(C)=O)C[C@@H]3OC1CC(NCc2ccccc2)C(O)C(C)O1 (some centres undefined)
T/C [1]: 113 % of control | T/C [2]: 117 % of control | T/C [3]: 104 % of control

c1ccc2c(NCCCCCCNc3c4ccccc4nc4ccccc34)c3ccccc3nc2c1
T/C (dose: 1.94 mg/kg/injection, schedule: Q01DX009 (ip), vehicle: other): 123 % of control | T/C (dose: 2.59 mg/kg/injection, schedule: Q04DX003 (ip), vehicle: other): 123 % of control | T/C (dose: 4.32 mg/kg/injection, schedule: Q04DX003 (ip), vehicle: other): 110 % of control | T/C (dose: 7.2 mg/kg/injection, schedule: Q04DX003 (ip), vehicle: other): 94 % of control | T/C (dose: 7.78 mg/kg/injection, schedule: Q01DX001 (ip), vehicle: water): 93 % of control | T/C (dose: 10.0 mg/kg/injection, schedule: Q01DX009 (ip), vehicle: Klucel (hydroxypropylcellulose) (HPC)): 150 % of control | T/C (dose: 13.0 mg/kg/injection, schedule: Q01DX001 (ip), vehicle: water): 98 % of control
